# Experimental data reported in ChEMBL document CHEMBL5365536, “Synthesis of mizoribine prodrugs and their in vivo evaluation as immunosuppressive agents” (2023).
# Experiments:
# Assay type in all cases: functional
# Mus musculus [1] = assay: Immunosuppressive activity in BALB/c mouse allografted with C57 mouse cardiac tissue assessed as suppression of graft rejection by measuring graft median survival time at 83 mg/kg, po in presence of tacrolimus
# Mus musculus [2] = assay: Immunosuppressive activity in BALB/c mouse allografted with C57 mouse cardiac tissue assessed as suppression of graft rejection by measuring graft median survival time at 83 mg/kg, po
# Mus musculus [3] = assay: Immunosuppressive activity in anti-CD3-stimulated mouse assessed as reduction in IL-2 level in whole blood at 40 mg/kg, po measured after 1 hr by flow cytometry analysis; set-up: scale not given: the % may be the effect or the level left
# Mus musculus [4] = assay: Immunosuppressive activity in anti-CD3-stimulated mouse assessed as reduction in IL-2 level in whole blood at 40 mg/kg, po measured after 8 hrs by flow cytometry analysis; set-up: scale not given: the % may be the effect or the level left
# Mus musculus [5] = assay: Immunosuppressive activity in anti-CD3-stimulated mouse assessed as reduction in IL-2 level in whole blood at 40 mg/kg, po measured after 4 hrs by flow cytometry analysis; set-up: scale not given: the % may be the effect or the level left
# Mus musculus [6] = assay: Immunosuppressive activity in BALB/c mouse allografted with C57 mouse cardiac tissue assessed as suppression of graft rejection by measuring graft median survival time at 112 mg/kg, po in presence of tacrolimus
# Mus musculus [7] = assay: Immunosuppressive activity in anti-CD3-stimulated mouse assessed as reduction in IL-2 level in whole blood at 55 mg/kg, po measured after 1 hr by flow cytometry analysis; set-up: scale not given: the % may be the effect or the level left
# Mus musculus [8] = assay: Immunosuppressive activity in BALB/c mouse allografted with C57 mouse cardiac tissue assessed as suppression of graft rejection by measuring graft median survival time at 112 mg/kg, po
# Mus musculus [9] = assay: Immunosuppressive activity in anti-CD3-stimulated mouse assessed as reduction in IL-2 level in whole blood at 55 mg/kg, po measured after 8 hrs by flow cytometry analysis; set-up: scale not given: the % may be the effect or the level left
# Mus musculus [10] = assay: Immunosuppressive activity in anti-CD3-stimulated mouse assessed as reduction in IL-2 level in whole blood at 55 mg/kg, po measured after 4 hrs by flow cytometry analysis; set-up: scale not given: the % may be the effect or the level left
# Mus musculus [11] = assay: Immunosuppressive activity in anti-CD3-stimulated mouse assessed as reduction in IL-2 level in whole blood at 65 mg/kg, po measured after 4 hrs by flow cytometry analysis; set-up: scale not given: the % may be the effect or the level left
# Mus musculus [12] = assay: Immunosuppressive activity in anti-CD3-stimulated mouse assessed as reduction in IL-2 level in whole blood at 65 mg/kg, po measured after 8 hrs by flow cytometry analysis; set-up: scale not given: the % may be the effect or the level left
# Mus musculus [13] = assay: Immunosuppressive activity in anti-CD3-stimulated mouse assessed as reduction in IL-2 level in whole blood at 65 mg/kg, po measured after 1 hr by flow cytometry analysis; set-up: scale not given: the % may be the effect or the level left
# Mus musculus [14] = assay: Immunosuppressive activity in anti-CD3-stimulated mouse assessed as reduction in IL-2 level in whole blood at 25 mg/kg, po measured after 8 hr by flow cytometry analysis; set-up: scale not given: the % may be the effect or the level left
# Mus musculus [15] = assay: Immunosuppressive activity in anti-CD3-stimulated mouse assessed as reduction in IL-2 level in whole blood at 25 mg/kg, po measured after 1 hr by flow cytometry analysis; set-up: scale not given: the % may be the effect or the level left
# Mus musculus [16] = assay: Immunosuppressive activity in anti-CD3-stimulated mouse assessed as reduction in IL-2 level in whole blood at 25 mg/kg, po measured after 4 hr by flow cytometry analysis; set-up: scale not given: the % may be the effect or the level left
# Mus musculus [17] = assay: Immunosuppressive activity in anti-CD3-stimulated mouse assessed as reduction in IL-2 level in whole blood at 50 mg/kg, po measured after 8 hr by flow cytometry analysis; set-up: scale not given: the % may be the effect or the level left
# Mus musculus [18] = assay: Immunosuppressive activity in anti-CD3-stimulated mouse assessed as reduction in IL-2 level in whole blood at 50 mg/kg, po measured after 4 hrs by flow cytometry analysis; set-up: scale not given: the % may be the effect or the level left
# Mus musculus [19] = assay: Immunosuppressive activity in anti-CD3-stimulated mouse assessed as reduction in IL-2 level in whole blood at 50 mg/kg, po measured after 1 hr by flow cytometry analysis; set-up: scale not given: the % may be the effect or the level left
# Mus musculus [20] = assay: Immunosuppressive activity in BALB/c mouse allografted with C57 mouse cardiac tissue assessed as suppression of graft rejection by measuring graft median survival time at 4 mg/kg, IM
structure (smiles),measurement,setting,value
CC(C)(C)C(=O)NC(=O)c1ncn([C@@H]2O[C@H](COC(=O)C(C)(C)C)[C@@H](O)[C@H]2O)c1O,MST,Mus musculus [1],55 days
same,MST,Mus musculus [2],11 days
same,Activity,Mus musculus [3],19.4%
same,Activity,Mus musculus [4],61.3%
same,Activity,Mus musculus [5],64.4%
NC(=O)c1ncn([C@@H]2O[C@H](COC(=O)[C@@H](N)CC(=O)OCc3ccccc3)[C@@H](O)[C@H]2O)c1O.O=C(O)C(F)(F)F,MST,Mus musculus [6],15.5 days
same,Activity,Mus musculus [7],77%
same,MST,Mus musculus [8],11 days
same,Activity,Mus musculus [9],27.7%
same,Activity,Mus musculus [10],32.7%
CC(C)CCOC(=O)C[C@H](NP(=O)(OC[C@H]1O[C@@H](n2cnc(C(N)=O)c2O)[C@H](O)[C@@H]1O)Oc1ccccc1)C(=O)OCCC(C)C (stereo not given in full),Activity,Mus musculus [11],18.3%
same,Activity,Mus musculus [12],17.5%
same,Activity,Mus musculus [13],14.7%
NC(=O)c1ncn([C@@H]2O[C@H](CO)[C@@H](O)[C@H]2O)c1O [MIZORIBINE],Activity,Mus musculus [14],7.3%
same,Activity,Mus musculus [15],55.6%
same,Activity,Mus musculus [16],8.6%
COc1c(C)c2c(c(O)c1C/C=C(\C)CCC(=O)OCCN1CCOCC1)C(=O)OC2 [MYCOPHENOLATE MOFETIL],Activity,Mus musculus [17],81.7%
same,Activity,Mus musculus [18],52.3%
same,Activity,Mus musculus [19],3.4%
C=CC[C@@H]1/C=C(\C)C[C@H](C)C[C@H](OC)[C@H]2O[C@@](O)(C(=O)C(=O)N3CCCC[C@H]3C(=O)O[C@H](/C(C)=C/[C@@H]3CC[C@@H](O)[C@H](OC)C3)[C@H](C)[C@@H](O)CC1=O)[C@H](C)C[C@@H]2OC [TACROLIMUS ANHYDROUS],MST,Mus musculus [20],8 days
